# Assay results reported in US20250332249A1, “CYTOM[…] CELL EPITOPES AND USES THEREOF” (LA JOLLA INSTITUTE FOR IMMUNOLOGY, priority 2021, published 2025).
# Where no end group is shown, it is not given here.
# Tested on: PBMCs from HCMV seropositive subjects
# Assay: ex vivo IFN-γ Fluorospot assay
# Assay type: cell-based, human
# Settings: 19 HCMV seropositive subjects, individual peptide 10 ug/ml, 20 hr; for No. of subjects responding: IFN-γ; for Magnitude of response: IFN-γ spots (FIG. 1: SFC/10^6 PBMC; no unit in table)
# Protocol: To define the targets of HCMV-specific T cell epitopes recognized in healthy adults, the inventors screened PBMCs of 19 subjects, 10 males and 9 females, recruited from San Diego blood bank (SDBB). The HCMV seropositivity of all the subjects was confirmed by IgG ELISA (FIG. 6A). A total of 2593 HCMV peptides covering a total of 563 ORFs (1) were tested. However, as many of these predicted ORFs overlapped 100% with others, as they were internal to longer ORFs, these 563 contained 359 completely unique ORFs composed of ˜150“canonical” ORFs, and an additional ˜200 identified by ribosomal RNA profiling (1). These peptides corresponded to predicted dominant epitopes, based on a bioinformatic method that predicts promiscuous binding to HLA class II molecules (40). Each of the ORFs above was covered by multiple predicted epitopes (with a minimum of at least 2), with the exception of very small ORFs (less than 15-20 amino acid residues), in which case at least one peptide was synthetized. The 2593 peptides were arranged in 89 pools of 28-30 15-mer peptides. PBMC reactivity of each of the 89 pools was assayed directly ex vivo using an IFN-γ Fluorospot assay.
# For the initial CMV ORF screen, the responses of 19 CMV-seropositive subjects were evaluated. PBMCs were stimulated with 89 pools covering 563 ORFs of HCMV. Each pool comprised of 28-30 15-mer peptides overlapping by 10 residues. PBMCs that were found reactive to a pool were further tested against individual peptides contained in the pool using IFN-γ Fluorospot assay.
# PBMC were thawed, washed and counted for viability using the trypan blue exclusion method. 200,000 cells were plated in triplicates and stimulated with pools (2 ug/ml) or peptides (10 ug/ml), PHA (10 ug/ml) or medium containing equivalent amount of DMSO in 96-well plates (Immubilion-P, Millipore) previously coated with anti IFN-γ antibody (1-DIK, Mabtech, Stockholm, Sweden). After 20 hr incubation at 37° C., cells were discarded and wells were washed six times with PBS/0.05% Tween 20 using an automated plate washer and further incubated with IFN-γ antibody (7-B6-1-FS-BAM) for 2 hrs at room temperature. After incubation, wells were washed and incubated with fluorophore conjugated anti-BAM-490 antibody for 1 hr at room temperature. Finally, the plates were washed and incubated with fluorescence enhancer for 15 min, blotted dry and fluorescent spots were counted by computer assisted image analysis (IRIS Fluorospot reader, Mabtech, Sweden).
# Each pool or peptide was considered positive compared to the background that had equivalent amount of DMSO based on the following criteria: (i) 20 or more spot forming cells (SFC) per 10^6 PBMC after background subtraction, (ii) the stimulation index greater than 2, and (iii) p<0.05 by student's t test or Poisson distribution test
Substance,No. of subjects responding,Magnitude of response
35 (RAHIQKFERLHVRRF; ends and bridges not checked) [compound 35],1,2523
160 (ISLVTPLTINATLRL) [compound 160],1,317
152 (LPLCSTARLRLAPRR) [compound 152],1,467
161 (CRVDADLGLLYAVCL) [compound 161],1,673
53 (EFLVRQYVLVDTFGV) [compound 53],2,104
209 (PWWRRLRVKRPKFPS) [compound 209],1,240
132 (AREFLLSHDAALFRA; ends and bridges not checked) [compound 132],1,23
102 (GALTLVIPSWHVFAS) [compound 102],2,190
56 (RHRFLWQRRRRARLL) [compound 56],1,1000
80 (ASCVTINQTSVKVLR) [compound 80],5,8941
159 (SCTHPYVISLVTPLT) [compound 159],1,80
212 (MNLVMLILALWAPVA) [compound 212],1,553
6 (GAGLRQLRQQLTVRW) [compound 6],1,20
90 (VELCLGAGAGHVVVV) [compound 90],1,383
145 (VRGGIVENKSVSSVV) [compound 145],5,2691
60 (KFIFELYRLPRLSIA) [compound 60],1,173
99 (LFIIAFFSREPTKDL) [compound 99],1,190
105 (SWLGQMLRPVGLCTL) [compound 105],1,43
88 (SLLILVVLLLIYRCC) [compound 88],1,23
202 (WKYAKKLNYHYFRLR) [compound 202],1,237
191 (FYMNWTLRRSQTHYL) [compound 191],6,16883
138 (AAITVVPVITQSRLA) [compound 138],3,450

Substance,No. of subjects responding,Magnitude of response
192 (QVEILKPRGVRHRAI) [compound 192],9,3468
12 (ARRLWILSLLAVTLT; ends and bridges not checked) [compound 12],1,100
134 (RLGTAATQIQKQTLY; ends and bridges not checked) [compound 134],1,30
197 (DRLSTLAATMCMFDY) [compound 197],1,53
190 (VVRFALYLETLSRIV) [compound 190],2,123
150 (CEIKPYVVNPVVATA) [compound 150],3,2583
29 (KRYFRPLLRAWSLGL) [compound 29],4,1388
95 (TMRKLKRKQALVKEQ) [compound 95],1,1563
155 (MSATRHHRCCTLRFR) [compound 155],1,277
23 (DFLRVVRQQDAFICT) [compound 23],2,174
223 (TDCWPFEVAPAARLA) [compound 223],2,1637
116 (RVTGLVFSVVFSVSL) [compound 116],4,6380
17 (FCRRFFFPDRPDFFL) [compound 17],1,107
135 (KTQIFNKLFTNRISV; ends and bridges not checked) [compound 135],1,1587
147 (AVAFLNYSSSSSAVS) [compound 147],3,2151
36 (SLQFIGLQRRDVVAL; ends and bridges not checked) [compound 36],1,83
89 (LSYMKYHHLHGLPVN) [compound 89],3,879
100 (PKSFTLTRIHPEYIV) [compound 100],2,340
27 (EAYVRINAGQVLPVV) [compound 27],1,1853
10 (MLGIRAMLVMLDYYW) [compound 10],1,350
77 (LRGYINRALAQIAEA) [compound 77],3,30337
170 (VLCCYVLEETSVMLA) [compound 170],1,93

Substance,No. of subjects responding,Magnitude of response
217 (VFQKTLSMLQGLYLR) [compound 217],2,327
16 (HENGIYYGTRSMRKL) [compound 16],1,827
156 (RVFCLSADWIRFLSL) [compound 156],2,846
208 (PQRLLLTALAIWQRT) [compound 208],1,983
225 (VVFMGRFSRVYAYDT) [compound 225],1,70
11 (PSVRMDFRARRPLRR) [compound 11],3,1740
37 (RDVVALVNFLRHLTQ; ends and bridges not checked) [compound 37],1,1710
68 (EGIMVVYKRNIVAHT) [compound 68],1,637
71 (RRSYAYIHTTYLLGS) [compound 71],5,2730
219 (WFLVMREQAAIPQIY) [compound 219],4,1100
141 (LRVTFHRVKPTLQRE) [compound 141],2,830
5 (QGATYQLSIVRQAMQ; ends and bridges not checked) [compound 5],1,650
196 (PTWSTTVNAHNSFLH) [compound 196],1,47
51 (GPGFMRYQLIVLIGQ; ends and bridges not checked) [compound 51],1,3167
24 (ICVARLQAQPSSRHI) [compound 24],1,37
220 (QIYARSLAADYLCCD) [compound 220],1,33
234 (FIMRQLMMYPLVLPF) [compound 234],1,530
50 (WPERCFIQLRSRSAL; ends and bridges not checked) [compound 50],3,313
233 (HDPLGLTRFIMRQLM) [compound 233],1,473
55 (RRRFKVCDVGRRHII) [compound 55],1,63
